Positions count from the first letter of the chain named. Bridge positions count the residues as written; N and C are the ends. Ends that are not written are not given here.
What was measured:
K352E hGPRC6A = target: T1, K352E hGPRC6A (Homo sapiens, UniProt Q5T6X5, K352E); experiment: ERK activation in HEK-293 cells transfected with K352E hGPRC6A; format: cell-based; details: K352E mutant; for ERK activation by Ocn small fragments: fragment at 20 nM, Figure 6D
T1 construct: expressed in transfected cells; host or cells: HEK-293, pcDNA3
T1 sequence (Q5T6X5 19-926 K352E): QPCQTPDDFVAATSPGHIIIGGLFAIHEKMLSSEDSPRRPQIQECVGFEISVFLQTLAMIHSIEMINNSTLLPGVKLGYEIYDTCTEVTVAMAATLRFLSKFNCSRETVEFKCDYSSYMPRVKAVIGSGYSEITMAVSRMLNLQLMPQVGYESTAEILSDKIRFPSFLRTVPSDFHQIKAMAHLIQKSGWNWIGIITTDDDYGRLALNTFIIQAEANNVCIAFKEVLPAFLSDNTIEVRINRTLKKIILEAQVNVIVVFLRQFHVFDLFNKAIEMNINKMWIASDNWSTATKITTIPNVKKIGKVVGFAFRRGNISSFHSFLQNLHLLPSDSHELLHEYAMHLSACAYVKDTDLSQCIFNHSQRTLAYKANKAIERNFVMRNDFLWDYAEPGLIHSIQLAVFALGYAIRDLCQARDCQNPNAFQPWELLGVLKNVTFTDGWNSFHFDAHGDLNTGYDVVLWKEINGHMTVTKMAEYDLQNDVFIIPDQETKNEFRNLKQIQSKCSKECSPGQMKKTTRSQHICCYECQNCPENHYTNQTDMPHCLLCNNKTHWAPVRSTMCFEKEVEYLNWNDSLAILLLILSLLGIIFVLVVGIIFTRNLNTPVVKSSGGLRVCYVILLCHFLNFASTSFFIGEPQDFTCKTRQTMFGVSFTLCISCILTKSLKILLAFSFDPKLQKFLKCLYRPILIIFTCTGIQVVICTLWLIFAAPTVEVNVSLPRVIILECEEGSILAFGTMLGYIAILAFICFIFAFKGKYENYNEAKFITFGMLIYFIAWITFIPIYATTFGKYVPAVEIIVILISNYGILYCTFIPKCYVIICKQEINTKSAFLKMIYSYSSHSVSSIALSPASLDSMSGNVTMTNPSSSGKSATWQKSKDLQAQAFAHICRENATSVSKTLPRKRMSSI
Method: (§1) All culture reagents were from Invitrogen (Waltham, MA, USA). Human embryonic kidney HEK‐293 cells were obtained from American Type Culture Collection and cultured in DMEM medium supplemented with 10% fetal bovine serum and 1% Penicillin/Streptomycin (P/S). Briefly, HEK‐293 cells transfected with/without human GPRC6A isoforms cDNA plasmids were starved by overnight incubation in serum‐free DMEM/F12 containing 0.1% bovine serum albumin (BSA) and stimulated with various ligands at different doses. ERK activation was assessed 20 min after treatment by using ERK1/2 (phospho‐T203/Y204) ELISA Kit (Invitrogen; Waltham, MA, USA) corrected for the amount of total ERK using ERK1/2 (Total) ELISA Kit (Invitrogen; Waltham, MA, USA) to measure ERK levels.
(§2) In‐vitro mutagenesis by PCR‐mediated recombination QuikChange II XL Site‐Directed Mutagenesis Kit (Agilent) was performed using the cDNA of human GPRC6A cloned in the vector pcDNA3 (Invitrogen) as a template. The primer sets are as follows. K352E.sen: […]; K352E.antisen: […]; H355P.sen: […]; H355P.antisen: […]; K352E/H355P.sen: […]; and K352E/H355P.antisen: […]. All mutants were confirmed by sequencing.

K352E/H355P hGPRC6A = target: T2, K352E/H355P hGPRC6A (Homo sapiens, UniProt Q5T6X5, H355P/K352E); experiment: ERK activation in HEK-293 cells transfected with K352E/H355P hGPRC6A; format: cell-based; details: for ERK activation by Ocn small fragments: K352E/H355P double mutant, fragment at 20 nM, Figure 6D
T2 construct: expressed in transfected cells; host or cells: HEK-293, pcDNA3
T2 sequence (Q5T6X5 19-926 K352E/H355P): T1 sequence (Q5T6X5 19-926 K352E) with H337P
Method: as §1, §2

| Substance | ERK activation by Ocn small fragments (K352E hGPRC6A) | ERK activation by Ocn small fragments (K352E/H355P hGPRC6A) | ERK phosphorylation, dose response of full-length Ocn, versus wild-type receptor (K352E hGPRC6A; Figure 6B) | ERK phosphorylation, dose response of full-length Ocn, versus wild-type receptor (K352E/H355P hGPRC6A; K352E/H355P mutant, Figure 6B) |
| --- | --- | --- | --- | --- |
| REVCELNPDC (disulfide 4-10 (inferred)) [Ocn 20–29, synthesized human Ocn decapeptide fragment located in the middle of the protein] | no response | no response | – | – |
| RFYGPV [Ocn 44–49, synthesized human Ocn C‐terminal hexapeptide] | significantly attenuated | partially activate | – | – |
| osteocalcin (YLYQWLGAPVPYPDPLEPRREVCELNPDCDELADHIGFQEAYRRFYGPV; not fully specified; ends and bridges not checked; UniProt P02818 52-100, looked up) [Ocn 1–49, full human Ocn (49 aa) synthesized by BioMatik; methods also describe decarboxylated Ocn purified from bovine tibial bone, reference compound] | – | – | significantly decreased | significantly decreased |

Reference: article PMC11467737, “Osteocalcin binds to a GPRC6A Venus fly trap allosteric site to positively modulate GPRC6A signaling” (FASEB BioAdvances, 2024)
